Laboratory results published in paper PMC11192711, “Automated radiosynthesis and preclinical evaluation of two new PSMA-617 derivatives radiolabelled via [^18F]AlF^2+ method” (EJNMMI Radiopharmacy and Chemistry, 2024).

Tested on: LNCaP tumour-bearing NSG mice
Test: PET/CT in vivo biodistribution and tumour uptake in subcutaneous LNCaP prostate cancer xenograft model
Details: n = 4; for Bone (SUV mean) / Brain (SUV mean) / Colon (SUV mean) / Gall bladder (SUV mean) / Heart (SUV mean) / Kidney (SUV mean) / Liver (SUV mean) / Lung (SUV mean) / Muscle (SUV mean) / Salivary gland (SUV mean) / Small instestine (SUV mean): LNCaP NSG male mice, i.v., PET/CT; for ratio between tumour and muscle (tumour SUV max/muscle SUV mean) / uptake in the tumour expressed as SUV max: LNCaP tumour, NSG mice
Method: The uptake of [^18F]F-PSMA-1007 and [^18F]F-PSMA-617-NODA ([^18F]1) was compared in vivo in a xenograft model of human prostate cancer obtained using LNCaP cells which are PSMA positive, as confirmed by real time PCR-analysis (Additional file 1: S69A). LNCaP tumour-bearing NSG mice were injected i.v. with either [^18F]F-PSMA-1007 or [^18F]F-PSMA-617-NODA (~ 3.8 MBq/mouse, ~ 20 pmol for [^18F]F-PSMA-1007 and ~ 50 pmol [^18F]1). Radiotracer uptake was assessed after 10, 60 and 120 min post injection by whole-body PET/CT acquisitions.
Total body biodistribution of [^18F]F-PSMA-1007, [^18F]F-PSMA-617-NODA and [^18F]F-PSMA-617-RESCA was evaluated in vivo using imaging PET/CT. [^18F]F-PSMA-617-NODA uptake was compared to that of the [^18F]F-PSMA-1007 in a PSMA positive prostate tumour xenograft model (LNCaP). [^18F]F-PSMA-617-NODA and [^18F]F-PSMA-617-RESCA uptake were also evaluated using an orthotopic glioma model (Gli36ΔEGFR).
Animal experiments were carried out in compliance with institutional guidelines for the care and the use of experimental animals, which have been authorized by the Italian Ministry of Health (n° 378/2019-PR and 817/2021-PR). The animals were housed at constant temperature (23 °C) and relative humidity (40%) under a regular light/dark cycle with food and water available ad libitum. Seven to eight weeks old male NSG mice (Charles River Laboratories Italia s.r.l., Italy) were subcutaneously inoculated in the right flank with 5 × 10^6 of PSMA‐positive human prostate cancer cells (LNCaP) suspended in matrigel (1: 1, total volume 200 ul). The growth tumour was monitored periodically with calliper and tumour volume was calculated using the following formula: […]
When the tumour volume was about 230.8 ± 60.3 mm^3 (approximately 15 days after tumour cells inoculation), 4 animals performed an in vivo biodistribution of [^18F]F-PSMA-1007 and [^18F]F-PSMA-617-NODA, on successive but non-consecutive days, using PET/CT.
Mice were injected into a tail vein with 3.8 ± 0.1 MBq of [^18F]F-PSMA-1007, 4.0 ± 0.2 MBq of [^18F]F-PSMA-617-NODA ([^18F]1) and 3.8 ± 0.1 MBq of [^18F]F-PSMA-617-RESCA ([^18F]2), respectively.
Total body PET/CT acquisitions were performed using PET/CT tomographs dedicated to small animals, X-ß-CUBE (Molecubes, Gent, Belgium) after 10, 60 and 120 min from tracer injection. Each acquisition lasted 30 min and mice were maintained anesthetized (4% isoflurane in induction and 2% in maintenance in air) during acquisition.
Image quantification analysis was performed with PMOD 4.105 software (Zurich, Switzerland). Volumes of interest (VOIs) were drawn on peripheral organs (tumour, thoracic muscle, heart, liver, kidney, salivary glands, lung, small intestine, colon, bone, gall bladder) and on the healthy brain using CT images. For the glioma model, PET/CT images were co-registered to MRI images and two different VOIs were defined: (1) a control VOI covering the healthy left striatum (volume 4 mm^3) was drawn on the axial MR images, adjusted on the other imaging planes and then copied on the PET images of each mouse; (2) a second glioma-covering VOI was drawn in the tumour-affected brain hemisphere and centered on mice lesions.
For quantification, Standardized Uptake Value (SUV) was calculated according to the formula:
SUV = organ concentration activity [MBq/g]/(injected activity [MBq]/animal weight [g]).
The data were expressed as standardized-uptake-values (SUVmean and SUVmax) and as tumour-to-muscle (T/M) and tumour-to-blood (T/B) ratio in PCa model and as tumour-to-contralateral (T/Cl) ratio in glioma model.

O=C(O)CCC(NC(=O)NC(CCCCNC(=O)C(Cc1ccc2ccccc2c1)NC(=O)C1CCC(CNC(=O)CCCN2CCN(CC(=O)O)CCN(CC(=O)O)CC2)CC1)C(=O)O)C(=O)O.[18F][Al] [[^18F]F-PSMA-617-NODA, (((S)-5-((S)-2-((1R,4S)-4-((4-(4,7-bis(carboxymethyl)-1,4,7-triazonan-1-yl)butanamido)methyl)cyclohexane-1-carboxamido)-3-(naphthalen-2-yl)propanamido)-1-carboxypentyl)carbamoyl)-L-glutamic acid [^18F] aluminium fluoride]
Bone (SUV mean) (10 min p.i.): 0.20 ± 0.12 | Brain (SUV mean) (10 min p.i.): 0.05 ± 0.003 | Colon (SUV mean) (10 min p.i.): 0.30 ± 0.08 | Gall bladder (SUV mean) (10 min p.i.): 0.27 ± 0.05 | Heart (SUV mean) (10 min p.i.): 0.30 ± 0.03 | Kidney (SUV mean) (10 min p.i.): 8.50 ± 1.40 | Liver (SUV mean) (10 min p.i.): 0.22 ± 0.02 | Lung (SUV mean) (10 min p.i.): 0.31 ± 0.04 | Muscle (SUV mean) (10 min p.i.): 0.15 ± 0.05 | Salivary gland (SUV mean) (10 min p.i.): 0.49 ± 0.05 | Small instestine (SUV mean) (10 min p.i.): 0.23 ± 0.05 | Bone (SUV mean) (60 min p.i.): 0.23 ± 0.11 | Brain (SUV mean) (60 min p.i.): 0.03 ± 0.01 | Colon (SUV mean) (60 min p.i.): 0.17 ± 0.02 | Gall bladder (SUV mean) (60 min p.i.): 0.14 ± 0.07 | Heart (SUV mean) (60 min p.i.): 0.09 ± 0.02 | Kidney (SUV mean) (60 min p.i.): 6.39 ± 2.14 | Liver (SUV mean) (60 min p.i.): 0.10 ± 0.02 | Lung (SUV mean) (60 min p.i.): 0.14 ± 0.01 | Muscle (SUV mean) (60 min p.i.): 0.04 ± 0.01 | Salivary gland (SUV mean) (60 min p.i.): 0.18 ± 0.08 | Small instestine (SUV mean) (60 min p.i.): 0.16 ± 0.05 | Bone (SUV mean) (120 min p.i.): 0.25 ± 0.12 | Brain (SUV mean) (120 min p.i.): 0.02 ± 0.01 | Colon (SUV mean) (120 min p.i.): 0.13 ± 0.06 | Gall bladder (SUV mean) (120 min p.i.): 0.03 ± 0.02 | Heart (SUV mean) (120 min p.i.): 0.03 ± 0.01 | Kidney (SUV mean) (120 min p.i.): 2.43 ± 1.24 | Liver (SUV mean) (120 min p.i.): 0.04 ± 0.01 | Lung (SUV mean) (120 min p.i.): 0.04 ± 0.01 | Muscle (SUV mean) (120 min p.i.): 0.02 ± 0.01 | Salivary gland (SUV mean) (120 min p.i.): 0.04 ± 0.02 | Small instestine (SUV mean) (120 min p.i.): 0.06 ± 0.03 | ratio between tumour and muscle (tumour SUV max/muscle SUV mean) (60 min p.i.): 30.29 ± 10.46 | uptake in the tumour expressed as SUV max (60 min p.i.): 1.11 ± 0.24 | ratio between tumour and muscle (tumour SUV max/muscle SUV mean) (120 min p.i.): 83.53 ± 48.71 | uptake in the tumour expressed as SUV max (120 min p.i.): 0.94 ± 0.12
